Structures can show the parent of a compound that is named as a salt.
What was measured:
[1] = Long-term stability test of Crystalline Form I, storage at 25° C./60% RH (open); type: physicochemical; details: for Appearance / DSC / Purity / XRPD: 25° C./60% RH (open)
Procedure: (§1) X-ray powder diffraction (XRPD) patterns were obtained on a Bruker D8 Advance. A CuK source (=1.54179 angstrom) operating minimally at 40 kV and 40 mA scans each sample between 3 and 40 degrees 2-theta. The scanning rate is 10 degrees 2-theta per minute and the sample rotation speed is 15 revolutions per minute.
(§2) Differential scanning calorimetry analysis was carried out on a TA Instrument DSC unit (TA Q2000). Samples were heated in non-hermetic aluminum pans from ambient to 260° C. at 10° C./min.
(§3) Crystalline Form I was not changed after storage at 40° C./75% RH for 6 months, or storage at 25° C./60% RH for 36 months.

[2] = Accelerated stability test of Crystalline Form I, storage at 40° C./75% RH (open); type: physicochemical; details: for Appearance / DSC / Purity / XRPD: 40° C./75% RH (open)
Procedure: as §1, §2, §3

In the case of C[C@]12CC[C@H](OC(=O)N3CCNCC3)C[C@H]1CC[C@@H]1[C@@H]2CC[C@]2(C)[C@@H](c3ccc(=O)oc3)CC[C@]12O [Crystalline Form I, (3S,5R,8R,9S,10S,13R,14S,17R)-14-hydroxy-10,13-dimethyl-17-(2-oxo-2H-pyran-5-yl)hexadecahydro-1H-cyclopenta[a]phenanthren-3-yl piperazine-1-carboxylate maleate], the Appearance ([1]; 0 month) is reported as “White powder”, the DSC ([1]; 0 month) is reported as 233.84° ° C and the Purity ([1]; 0 month) is reported as 99.86%. The XRPD ([1]; 0 month) was “Form I”, the Appearance ([1]; 12 months) was “White powder” and the DSC ([1]; 12 months) was 234.41° ° C. For the same compound, the Purity ([1]; 12 months) was 99.87%, the XRPD ([1]; 12 months) was “Form I” and the Appearance ([1]; 24 months) was “White powder”. For the same compound, the DSC ([1]; 24 months) was 232.9° ° C, the Purity ([1]; 24 months) was 99.91% and the XRPD ([1]; 24 months) was “Form I”. For the same compound, the Appearance ([1]; 36 months) was “White powder”, the DSC ([1]; 36 months) was 233.6° ° C and the Purity ([1]; 36 months) was 100.00%. For the same compound, the XRPD ([1]; 36 months) was “Form I”, the “Change of crystalline form after storage” value ([1]; storage at 25° C./60% RH for 36 months) was “not changed” and the Appearance ([2]; 0 month) was “White powder”. For the same compound, the DSC ([2]; 0 month) was 233.84° ° C, the Purity ([2]; 0 month) was 99.86% and the XRPD ([2]; 0 month) was “Form I”. For the same compound, the Appearance ([2]; 6 months) was “White powder”, the DSC ([2]; 6 months) was 234.28° ° C and the Purity ([2]; 6 months) was 99.91%. The XRPD ([2]; 6 months) was “Form I” and the “Change of crystalline form after storage” value ([2]; storage at 40° C./75% RH for 6 months) was “not changed”.

Reference: patent US20240092825A1, “CERTAIN CHEMICAL ENTITIES, COMPOSITIONS, AND METHODS” (priority 2021, published 2024)
